The target in this test is CK2A1 (CK2α/β) (Homo sapiens, UniProt P68400). The test is described as follows: CK2 kinase assay, CK2A1 (CK2α/β). Type of test: biochemical. The following applies: Table A; read-out: CK2A1 (CK2α/β) (IC50).
Chain of CK2A1 (CK2α/β) (P68400 whole entry, species assumed): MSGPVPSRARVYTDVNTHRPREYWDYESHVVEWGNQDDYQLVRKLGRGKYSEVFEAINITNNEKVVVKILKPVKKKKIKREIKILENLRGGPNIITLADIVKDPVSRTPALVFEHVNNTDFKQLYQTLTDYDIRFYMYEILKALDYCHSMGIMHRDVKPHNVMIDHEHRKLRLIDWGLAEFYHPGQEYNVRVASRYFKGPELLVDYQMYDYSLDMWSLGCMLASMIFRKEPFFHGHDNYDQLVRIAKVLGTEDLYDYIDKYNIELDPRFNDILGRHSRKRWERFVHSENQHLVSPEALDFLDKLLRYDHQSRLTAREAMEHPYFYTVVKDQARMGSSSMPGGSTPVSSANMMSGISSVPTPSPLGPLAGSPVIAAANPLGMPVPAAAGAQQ
Chain of CK2A1 (CK2α/β) (P67870 whole entry partner, species assumed): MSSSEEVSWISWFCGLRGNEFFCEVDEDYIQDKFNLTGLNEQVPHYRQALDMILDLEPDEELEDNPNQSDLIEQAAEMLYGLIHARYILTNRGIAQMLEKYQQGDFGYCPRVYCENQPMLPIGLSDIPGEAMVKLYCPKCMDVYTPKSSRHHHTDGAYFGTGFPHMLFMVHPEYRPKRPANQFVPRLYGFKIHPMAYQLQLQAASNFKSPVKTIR
As to `COCCN1CC(N2CCN(c3cc(C#N)cc(Nc4nc(NC5CC5)c5ncc(C#N)n5n4)c3Cl)CC2)C1` [Example 61, 2-((2-chloro-5-cyano-3-(4-(1-(2-methoxyethyl)-3-azetidinyl)-1-piperazinyl)phenyl)amino)-4-(cyclopropylamino) imidazo[2,1-f][1,2,4] triazine-7-carbonitrile], the IC50 came out at 0.96 nM.
For the compound `N#Cc1cc(Nc2nc(NC3CC3)c3ncc(C#N)n3n2)c(Cl)c(N2CCN(C3CCC3=O)CC2)c1` (stereo not shown) [Example 62, 2-((2-chloro-5-cyano-3-(4-(2-oxocyclobutyl)piperazin-1-yl)phenyl)amino)-4-(cyclopropylamino) imidazo[2,1-f][1,2,4] triazine-7-carbonitrile], the IC50 stood at 3.02 nM.
As to `COCCN1CCC(N2CCN(c3cc(C#N)cc(Nc4nc(NC5CC5)c5ncc(C#N)n5n4)c3Cl)CC2)CC1` [Example 63, 2-((2-chloro-5-cyano-3-(4-(1-(2-methoxyethyl)-4-piperidinyl)-1-piperazinyl)phenyl)amino)-4-(cyclopropylamino) imidazo[2,1-f][1,2,4] triazine-7-carbonitrile], the IC50 came out at 0.7 nM.
To `COC(=O)N1CCN(c2cc(C#N)cc(Nc3nc(NC4CC4)c4ncc(C#N)n4n3)c2Cl)CC1` [Example 67, methyl 4-(2-chloro-5-cyano-3-((7-cyano-4-(cyclopropylamino)imidazo[2,1-f] [1,2,4]triazin-2-yl)amino)phenyl)-1-piperazinecarboxylate] belongs 0.48 nM; to `COCCOC(=O)N1CCN(c2cc(C#N)cc(Nc3nc(NC4CC4)c4ncc(C#N)n4n3)c2Cl)CC1` [Example 68, 2-methoxyethyl 4-(2-chloro-5-cyano-3-((7-cyano-4-(cyclopropylamino)imidazo[2,1-f] [1,2,4]triazin-2-yl)amino)phenyl)-1-piperazinecarboxylate], 0.67 nM; to `C[C@@H](CN1CCN(c2cc(C#N)cc(Nc3nc(NC4CC4)c4ncc(C#N)n4n3)c2Cl)CC1)NS(C)(=O)=O` [Example 69, N-((1S)-2-(4-(2-chloro-5-cyano-3-((7-cyano-4-(cyclopropylamino)imidazo[2,1-f][1,2,4]triazin-2-yl)amino)phenyl)-1-piperazinyl)-1-methylethyl) methanesulfonamide], 0.47 nM.
In the case of `CS(=O)(=O)CCN1CC(N2CCN(c3cc(C#N)cc(Nc4nc(NC5CC5)c5ncc(C#N)n5n4)c3Cl)CC2)C1` [Example 70] it was 0.54 nM; in that of `CNCCOC(=O)N1CCN(c2cc(C#N)cc(Nc3nc(NC4CC4)c4ncc(C#N)n4n3)c2Cl)CC1` [Example 71, 2-(methylamino)ethyl 4-(2-chloro-5-cyano-3-((7-cyano-4-(cyclopropylamino)imidazo[2,1-f] [1,2,4]triazin-2-yl)amino)phenyl)-1-piperazinecarboxylate], 0.76 nM; in that of `CN1CC(N2CCN(c3cc(C#N)cc(Nc4nc(NC5CC5)c5ncc(C#N)n5n4)c3Cl)CC2)C1` [Example 72, 2-((2-chloro-5-cyano-3-(4-(1-methyl-3-azetidinyl)-1-piperazinyl)phenyl)amino)-4-(cyclopropylamino) imidazo[2,1-f][1,2,4] triazine-7-carbonitrile], 0.79 nM.
`CS(=O)(=O)N1CC(N2CCN(c3cc(C#N)cc(Nc4nc(NC5CC5)c5ncc(C#N)n5n4)c3Cl)CC2)C1` [Example 73]: the IC50 came out at 0.74 nM.
To `N#Cc1cc(Nc2nc(NC3CC3)c3ncc(C#N)n3n2)c(Cl)c(N2CCN(C(=O)C3CC3)CC2)c1` [Example 74, 2-((2-chloro-5-cyano-3-(4-(cyclopropylcarbonyl)-1-piperazinyl)phenyl)amino)-4-(cyclopropylamino) imidazo[2,1-f][1,2,4] triazine-7-carbonitrile] belongs 0.55 nM; to `N#Cc1cc(Nc2nc(NC3CC3)c3ncc(C#N)n3n2)c(Cl)c(N2CCN(C(=O)C(F)F)CC2)c1` [Example 75, 2-(2-chloro-5-cyano-3-(4-(2,2-difluoroacetyl)piperazin-1-yl)phenylamino)-4-(cyclopropylamino) imidazo[1,2-f][1,2,4] triazine-7-carbonitrile], 0.41 nM; to `CC(=O)NCC(=O)N1CCN(c2cc(C#N)cc(Nc3nc(NC4CC4)c4ncc(C#N)n4n3)c2Cl)CC1` [Example 76, N-(2-(4-(2-chloro-5-cyano-3-((7-cyano-4-(cyclopropylamino)imidazo[2,1-f][1,2,4]triazin-2-yl)amino)phenyl)-1-piperazinyl)-2-oxoethyl)acetamide], 0.75 nM.
To `COCC(=O)N1CCN(c2cc(C#N)cc(Nc3nc(NC4CC4)c4ncc(C#N)n4n3)c2Cl)CC1` [Example 77] belongs 0.69 nM; to `N#Cc1cc(Nc2nc(NC3CC3)c3ncc(C#N)n3n2)c(Cl)c(N2CCN(C(=O)CO)CC2)c1` [Example 78, 2-(2-chloro-5-cyano-3-(4-(2-hydroxyacetyl)piperazin-1-yl)phenylamino)-4-(cyclopropylamino) imidazo[1,2-f][1,2,4] triazine-7-carbonitrile], 0.41 nM; to `CC(C)(O)C(=O)N1CCN(c2cc(C#N)cc(Nc3nc(NC4CC4)c4ncc(C#N)n4n3)c2Cl)CC1` [Example 79, 2-((2-chloro-5-cyano-3-(4-(2-hydroxy-2-methylpropanoyl)-1-piperazinyl)phenyl)amino)-4-(cyclopropylamino) imidazo[2,1-f][1,2,4] triazine-7-carbonitrile], 0.53 nM.
In the case of `N#Cc1cc(Nc2nc(NC3CC3)c3ncc(C#N)n3n2)c(Cl)c(N2CCN(C(=O)CCN3CCCCC3)CC2)c1` [Example 82, 2-((2-chloro-5-cyano-3-(4-(3-(1-piperidinyl)propanoyl)-1-piperazinyl)phenyl)amino)-4-(cyclopropylamino) imidazo[2,1-f][1,2,4] triazine-7-carbonitrile] it was 0.79 nM; in that of `CC(=O)N1CCC[C@H]1C(=O)N1CCN(c2cc(C#N)cc(Nc3nc(NC4CC4)c4ncc(C#N)n4n3)c2Cl)CC1` [Example 83, 2-((3-(4-(1-acetyl-L-prolyl)-1-piperazinyl)-2-chloro-5-cyanophenyl)amino)-4-(cyclopropylamino) imidazo[2,1-f][1,2,4] triazine-7-carbonitrile], 0.63 nM.
On to `CC(=O)N1CCN(c2cc(C#N)cc(Nc3nc(NC4CC4)c4ncc(C#N)n4n3)c2Cl)CC1` [Example 85, 2-((3-(4-acetyl-1-piperazinyl)-2-chloro-5-cyanophenyl)amino)-4-(cyclopropylamino) imidazo[2,1-fl][1,2,4] triazine-7-carbonitrile], for which the IC50 was determined as 0.57 nM.
With `N#Cc1cc(Nc2nc(NC3CC3)c3ncc(C#N)n3n2)c(Cl)c(N2CCN(C(=O)CC3CC3)CC2)c1` [Example 86], the IC50 was 0.72 nM.
To `COCCC(=O)N1CCN(c2cc(C#N)cc(Nc3nc(NC4CC4)c4ncc(C#N)n4n3)c2Cl)CC1` [Example 87, 2-((2-chloro-5-cyano-3-(4-(3-methoxypropanoyl)-1-piperazinyl)phenyl)amino)-4-(cyclopropylamino) imidazo[2,1-f][1,2,4] triazine-7-carbonitrile] belongs 0.76 nM.
As to `COCCOCC(=O)N1CCN(c2cc(C#N)cc(Nc3nc(NC4CC4)c4ncc(C#N)n4n3)c2Cl)CC1` [Example 88, 2-((2-chloro-5-cyano-3-(4-((2-methoxyethoxy)acetyl)-1-piperazinyl)phenyl)amino)-4-(cyclopropylamino) imidazo[2,1-f][1,2,4] triazine-7-carbonitrile], the IC50 was determined as 0.6 nM.

Source of the values: patent US9273057B2 (Bristol-Myers Squibb Company, priority 2012, dated 2016).
